Source: EPA's ToxValDB 9.5 (doi:10.2903/j.efsa.2018.5150)
≈ marks a conversion by molar mass, not a printed value.

Assays:
Apis mellifera = details: acute, mortality
Anas platyrhynchos = details: reproductive
Colinus virginianus = details: acute; oral; mortality
Tagia sp. = details: chronic/long-term; duration: 56 days; reproduction
Bibionidae = details: chronic/long-term; duration: 28 days
Oncorhynchus mykiss = details: acute; duration: 96 hours; mortality
Daphnia magna = details: chronic/long-term; duration: 21 days
Folsomia candida = details: chronic/long-term; duration: 28 days; reproduction
Aphidius rhopalosiphi = assay: LR50; higher = less toxic; details: acute; mortality

SMILES: CCOC(=O)Nc1cccc(OC(=O)Nc2ccccc2)c1 [Desmedipham]
- LD50 (Rattus norvegicus; acute, oral, mortality): > 5000 mg/kg-day
- NOAEL (Rattus norvegicus; chronic, duration: 2 years, hematological): 3.2 mg/kg-day
- NOAEL (Rattus norvegicus; reproduction developmental, M, reproduction): 4 mg/kg-day
- NOAEL (Rattus norvegicus; subchronic, duration: 90 days, oral, hematological): 5.2 mg/kg-day
- LD50 (Apis mellifera; dermal): > 100 µg/piece
- LD50 (Apis mellifera; oral, unspecified): > 101 µg/piece
- NOAEL (Anas platyrhynchos): 11 mg/kg-day
- LD50 (Colinus virginianus): > 2000 mg/kg-day
- NOEC (Tagia sp.): 64 mg/kg
- NOEC (Bibionidae): 0.14 mg/L
- LC50 (Oncorhynchus mykiss): 1.41 µg/mL (≈ 4.7 µM)
- NOEC (Daphnia magna): 0.02 mg/L
- NOEC (Folsomia candida): 158 mg/kg
- LR50 (Aphidius rhopalosiphi): 63.8 g/ha
